Source: patent publication US20110207807A1, “NEW USE FOR HOMOISOFLAVONE OR A SALT THEREOF” (Catholic University Industry Academy Cooperation Foundation, priority 2008, published 2011)

How the values were obtained:
leukotriene B4 = experiment: Release of leukotriene B4 induced by PMA and A23187 in HMC-1 (enzyme immunoassay); type: cell-based, human
Description: (§1) Phorbol 12-myristate 13-acetate and A23187 lead to degranulation of human mast cells (HMC), causing the mast cells to release not only their histamine or serotonin but also newly produced inflammatory factors such as pro-inflammatory cytokines, prostaglandins and leukotrienes. It was investigated whether homoisoflavanone has anti-inflammatory effect in mast cells as in Examples 4 and 5. In order to investigate the effect of homoisoflavanone on the release of leukotriene induced by phorbol 12-myristate 13-acetate and A23187 in HMC-1, 1×10^6 HMC-1 cells were inoculated on a 100-mm culture dish and cultured in Iscove's modified Dulbecco's medium (IMDM, GIBCO) containing 10% FBS for 48 hours. Then, after treating with homoisoflavanone at 2 μg/mL or with mizolastine at 10 μg/mL for comparison for 1 hour, the cells were treated with 50 nM phorbol 12-myristate 13-acetate and 1 μM A23187 to induce release of leukotriene, and then further cultured for 21 hours. Then, the supernatant was collected and the quantity of released leukotriene B4 and C4 was measured using a leukotriene B4, C4 enzyme immunoassay kit (Sapphire Bioscience, Australia).

leukotriene C4 = experiment: Release of leukotriene C4 induced by PMA and A23187 in HMC-1 (enzyme immunoassay); type: cell-based; conditions: Homo sapiens, HMC1; HMC-1, homoisoflavanone 2 μg/mL or mizolastine 10 μg/mL, 50 nM PMA + 1 μM A23187, 21 hours (FIG. 6b)
Description: as §1

leukotriene B4 release when treated alone, versus non-treated group (leukotriene B4; HMC-1, homoisoflavanone 2 μg/mL or mizolastine 10 μg/mL alone, without PMA/A23187 (FIG. 6a)): no appreciable difference
Structure (SMILES): CN(c1nccc(=O)[nH]1)C1CCN(c2nc3ccccc3n2Cc2ccc(F)cc2)CC1 [mizolastine, reference compound]
inhibition at 10 µg/mL (leukotriene B4; Homo sapiens, HMC1, HMC-1, homoisoflavanone 2 μg/mL or mizolastine 10 μg/mL, 50 nM PMA + 1 μM A23187, 21 hours (FIG. 6a)): 20%
inhibition at 10 µg/mL (leukotriene C4): ≥ 90%
